Test results reported in paper PMC5267425, “Identification of small molecule modulators of HIV-1 Tat and Rev protein accumulation” (Retrovirology, 2017).

Key:
Assay type in all cases: cell-based
in vitro = conditions: human
Description: To assess the activity of compounds against HIV-1 strains having resistance to various ART drugs, assays were performed in the context of CEM-GXR cells. These cells express CD4, CXCR4, and coreceptor, CCR5 as well as an exogenous Tat-driven LTR-GFP expression cassette. Cultures were infected with different HIV-1 strains of interest, differing on their subtypes (A and B), and resistance to three major drug targets (reverse transcriptase, protease, and integrase). The culture contains serial dilutions of the molecule in the final concentrations from 0.156 to 5 μM for 833; 725 nM to 46.87 μM for 791; 1.95 to 62.5 μM for 892. Antiviral activity was evaluated in the assay by measuring inhibition of HIV-1 spread in a coculture of CEM-GXR cells containing 1% of HIV-1 infected (GFP positive) cells using flow cytometric analysis (GuavaSoft 2.2 software, Guava HT8, Millipore). To estimate the viable cell counts, the gate in a flow cytometer (Guava HT8) was set to cover 95% of the freshly passaged uninfected CEM-GXR cell or using ViaCount™. The same parameter was employed to gate viable cells in the inhibition assay and the number of gated cells was obtained by GuavaSoft 2.2 software. For assays using ViaCount™, sample acquisition and data analysis were performed with the selection of EasyFit analysis feature using the ViaCount™ software module.
Additional file 1: Figure S1. […] Cell viability was measured by an XTT assay. […] Cells were analyzed after 24 h incubation with the compounds at the indicated concentrations ranging between 0–47 μM (791), 0–5 μM (833), or 0–62.5 μM (892). Results are expressed as the percentage (%) of viable cells relative to DMSO treatment ±SEM of two independent experiments performed in triplicate. […] Images are cropped to show a representative field of view. b The dose range of the compounds which inhibit HIV-1 GagGFP expression in HeLa rtTA HIVGagGFP C7 cells was measured by mean fluorescence intensity and expressed relative to fluorescence intensity in DMSO-treated samples (N ≥ 3, *p ≤ 0.05, **p ≤ 0.01, and ***p ≤ 0.001). […]

[1] = Trypan blue exclusion, HeLa; conditions: human, HeLa rtTA HIV∆Mls cells
Description: Effects of compound treatment on cellular metabolism was assessed by an XTT-based in vitro toxicology assay kit (Sigma-Aldrich) or Trypan blue exclusion (Life Technologies) as proxy for degree of cytotoxicity and expressed relative to DMSO control treatment. For measurement of cell viability using XTT, culture media was removed after 24, 72, and 96 h of compound treatment, replaced with 20% XTT solution and incubated at 37 °C in a 5% CO2 humidified incubator for 2–6 h, and relative cell viability was measured in compound treated cells relative to DMSO-treated cells. Cell viability measurements in CEM-GXR cells are described above.

p53 = test: Western blot of p53; conditions: 791 30 µM, 833 2 µM, 892 15 µM
Description: ELISA for p24 Gag antigen was performed on cell supernatants using kits purchased from Frederick National Laboratory for Cancer Research (Leidos) or XpressBio extended range kit and performed according to manufacturer’s instructions. Protein concentration in cell lysates was quantified by Bradford assay and equal amounts of protein run on 7, 10, 12, or 14% SDS-PAGE, depending on the protein of interest. Following transfer to PVDF (BioRad or Perkin-Elmer), blots were blocked in either 5% Milk-PBS-T (5% Milk, 0.05% Tween-20, 1× PBS) or 3% BSA-PBS-T (3% BSA, 0.05% Tween-20, 1× PBS) prior to incubating with primary antibody (all diluted in 3% BSA-PBS-T). Primary antibodies used were: purified mouse anti-p24 supernatant from anti-HIV-1 Gag hybridoma 183, mouse anti-gp120 hybridoma 902 (NIH AIDS Reagent Program), mouse monoclonal antibody to HIV-1 Rev (Abcam), rabbit polyclonal antibody to HIV-1 Tat (Abcam), mouse monoclonal antibody to p53 (Santa Cruz), rabbit purified IgG for Nap1 (provided by L. Frappier), rabbit polyclonal antibody to GAPDH (Sigma-Aldrich), or mouse monoclonal antibody to α-Tubulin (Sigma-Aldrich). Following incubation with appropriate secondary antibody, blots were visualized by ECL, ECL Plus (Perkin-Elmer), or Clarity Western ECL substrate (BioRad). Quantification of the relative intensity of the detected bands was done using ImageLab software and normalized to corresponding bands of the loading control (GAPDH or α-Tubulin).

HIV-1 MS RNA isoforms = test: RT-PCR of splice site usage within HIV-1 MS RNA; conditions: for decrease in levels of Rev1/2 and Nef RNAs relative to DMSO / increase of Tat1 and Tat2 RNAs relative to DMSO: 833 2 µM, 892 15 µM
Description: The effect of compound treatment on splice site selection within the HIV-1 MS RNA class was analyzed by radioactive RT-PCR as described previously. Radioactive reaction products were resolved on 6% denaturing polyacrylamide gels (8 M Urea, 1xTBE) and detection using a Typhoon 9400 PhosphorImager (Amersham). Gel densitometry was performed using ImageJ software (NIH) to calculate mRNA levels of HIV-1 MS mRNA isoforms, measured as the density of an individual isoform divided by the total density of all visible viral RNA species in a sample.

Row | SMILES | CC50 at 24 h (in vitro) [µM] | CC50 [1] [µM] | p53 expression (p53) | splice site usage within MS RNA relative to control (HIV-1 MS RNA isoforms; 30 µM, 24 h) | decrease in levels of Rev1/2 and Nef RNAs relative to DMSO (HIV-1 MS RNA isoforms) | increase of Tat1 and Tat2 RNAs relative to DMSO (HIV-1 MS RNA isoforms) [%]
1 | Cc1cc(NCc2cccnc2)n2ncc(-c3ccc(Cl)cc3)c2n1 [Compound 791, 3-(4-chlorophenyl)-5-methyl-N-(3-pyridinylmethyl)pyrazolo[1,5-a]pyrimidin-7-amine] | 24 | > 40 | approximately twofold | No significant changes | – | –
2 | O=C(NC(=S)NNC(=O)c1ccccc1O)c1ccc(-c2ccccc2)cc1 [Compound 833, N-([2-(2-hydroxybenzoyl)hydrazino]carbonothioyl}-4-biphenylcarboxamide] | > 5 | > 10 | no effect | – | ~ 30% | < 10
3 | COc1ccc(C=NNC(=O)c2ccccc2O)cc1O [Compound 892, 2-hydroxy-N′-(3-hydroxy-4-methoxybenzylidene)benzohydrazide] | 60 | > 40 | no effect | – | ~ 30% | < 10
